From ChEMBL document CHEMBL1154562, “Malevamides A-C, new depsipeptides from the marine cyanobacterium Symploca laete-viridis” (J Nat Prod, 2000)
The source made the active and inactive calls.

Tests used:
Assay type in all cases: functional, cell-based
A549 = assay: Cytotoxicity against human A549 cells at 2 ug/mL
HT-29 = assay: Cytotoxicity against human HT29 cells at 2 ug/mL
P388 = assay: Cytotoxicity against mouse P388 cells at 2 ug/mL

Measured: Activity

CCCC1NC(=O)[C@H](Cc2ccccc2)N(C)C(=O)[C@@H]2CCCN2C(=O)C(C(C)C)N(C)C(=O)[C@@H]2CCCN2C(=O)[C@H]([C@@H](C)CC)NC(=O)C(C(C)C)N(C)C(=O)[C@@H]2CCCN2C(=O)C(C(C)C)N(C)C(=O)C(C(C)C)N(C)C(=O)[C@H](C(C)C)NC(=O)[C@H](C)N(C)C(=O)[C@@H](C(C)C)OC(=O)C1C (some centres undefined)
inactive: all assays above

C#CCCCC1NC(=O)[C@H]([C@@H](C)CC)N(C)C(=O)[C@@H]2CCCN2C(=O)[C@@H]2CCCN2C(=O)[C@H](CC(C)C)NC(=O)[C@H](C(C)C)N(C)C(=O)[C@H](C)NC(=O)[C@@H](C)N(C)C(=O)[C@H](Cc2ccccc2)N(C)C(=O)[C@H](COC)N(C)C(=O)[C@H](C(C)C)N(C)C(=O)[C@@H]2CCCN2C(=O)[C@H](C)NC(=O)[C@H](C(C)C)OC(=O)C1C (some centres undefined)
inactive: all assays above

CCCCC(C)C(=O)N1CCC[C@H]1C(=O)N(C)C(Cc1ccccc1)C(=O)NCC(=O)N(C)[C@@H](C(=O)N[C@H](C(=O)NCC(=O)N(C)C(Cc1ccccc1)C(=O)N1CCC[C@@H]1C(=O)OC)[C@@H](C)CC)C(C)C (some centres undefined)
inactive: all assays above
